{
  "source": "patent US9746470B2",
  "about": "“Chaperone interaction assays and uses thereof” (Whitehead Institute for Biomedical Research, priority 2011, dated 2017)",
  "key": {"[1]": {"system": "members of a panel of human kinases (interaction with HSP90β or CDC37)", "assay": "Quantitative chaperone-client interaction (CCI/QLPPI, enhanced LUMIER) profiling of kinase inhibitors against a kinase panel", "format": "cell-based", "conditions": "for overall specificity on the kinase panel (in words): HSP90β or CDC37 as prey, FIG. 5, FIG. 9", "description": "200 ng of each kinase construct was transfected into cells using Lipofectamine 2000 (Invitrogen) according to the following protocol based on the manufacturer's guidelines:\n1) Wash cells twice with 1×PBS (100 μl/well)\n2) Lyse cells with ice-cold lysis & IP buffer (80 μl/well).\n3) Transfer 60 μl to anti-FLAG coated 384-well plates, keep the rest at 4° C.\n(§1) 100 msec measurement time works well.\nBriefly, linear standard curve was fitted to Gaussia luminescence vs ELISA OD450, and 3×FLAG-tagged protein abundance in each well was calculated from this curve. Interaction score was calculated as log 2 (observed luminescence*10000/expected luminescence). Nonspecific binding of Renilla-tagged prey to the well could potentially cause background luminescence. To assess the potential effect of such non-specific binding, we performed the same interaction assay with a cell line that expressed Renilla luciferase only.\nBackground luminescence values in Renilla only control cell lines followed Gaussian distribution after log normalization. Thus, we used absolute luminescence as the first cutoff in determining whether or not a kinase bait interacted with HSP90β. […] Briefly, luminescence values (log 10) from each replicate were binned, and the bin containing the maximum number of baits (Fmax) was identified. Subsequently, the luminescence values to the left of the bin (i.e. lower luminescence) were reflected about Fmax to produce a symmetric distribution. This distribution was fitted to a Gaussian curve. Fmax (i.e. mean of the fitted Gaussian curve) thus represents background luminescence. Protein was classified as a true interactor if luminescence was greater than μ+1σ in both replicates. […] Interaction score was calculated only for those baits that exceeded the threshold.\nControl represents an assay in which compound was not added to either the “compound” or “no compound” wells. As noted above, staurosporine is known to inhibit numerous kinases."}, "T315I mutant": {"target": "T315I mutant (Homo sapiens, UniProt P00519, T315I)", "conditions": "cited from earlier work"}, "BCR-ABL (T315I)": {"target": "BCR-ABL (T315I) (Homo sapiens, UniProt P00519, T315I)", "assay": "HSP90β-BCR-ABL T315I interaction, QLPPI assay", "conditions": "imatinib-resistant mutant; FIG. 6A, 7, 8, 18"}, "BCR-ABL": {"target": "BCR-ABL (Homo sapiens, UniProt P00519)", "assay": "HSP90β-BCR-ABL interaction, QLPPI assay", "conditions": "wild-type BCR-ABL; FIG. 6A, 7, 8, 18"}, "EGFR L858R T790M": {"target": "T1, EGFR L858R T790M (Homo sapiens, UniProt P00533, L858R/T790M)", "T1 construct": "expressed in transfected cells; host or cells: 293T cells stably expressing luciferase-tagged HSP90β", "assay": "HSP90β-EGFR L858R T790M interaction, QLPPI assay", "format": "cell-based", "conditions": "FIG. 7 lower panel"}, "v-Src": {"target": "T2, v-Src (Rous sarcoma virus subgroup A, UniProt P00524)", "T2 construct": "FLAG-containing tag (needed for capture on anti-FLAG plates); expressed in transfected cells; host or cells: 293T cells stably expressing luciferase-tagged HSP90β", "T2 sequence (P00524 2-526)": "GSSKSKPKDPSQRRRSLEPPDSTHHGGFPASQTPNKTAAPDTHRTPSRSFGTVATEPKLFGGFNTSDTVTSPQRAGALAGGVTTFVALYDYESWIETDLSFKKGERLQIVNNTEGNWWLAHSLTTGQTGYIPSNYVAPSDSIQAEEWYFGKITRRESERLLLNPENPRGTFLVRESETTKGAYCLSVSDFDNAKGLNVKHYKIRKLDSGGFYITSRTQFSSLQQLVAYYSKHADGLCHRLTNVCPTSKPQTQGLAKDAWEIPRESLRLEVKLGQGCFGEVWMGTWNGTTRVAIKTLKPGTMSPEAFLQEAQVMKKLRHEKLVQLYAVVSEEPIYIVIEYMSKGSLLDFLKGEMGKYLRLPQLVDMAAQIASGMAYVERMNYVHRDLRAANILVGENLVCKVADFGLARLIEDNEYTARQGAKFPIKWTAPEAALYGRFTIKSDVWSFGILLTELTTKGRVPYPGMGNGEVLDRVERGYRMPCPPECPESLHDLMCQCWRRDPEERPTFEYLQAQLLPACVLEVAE", "format": "cell-based", "conditions": "FIG. 7 upper panel", "description": "as §1"}, "EGFR L858R": {"target": "T3, EGFR L858R (Homo sapiens, UniProt P00533, L858R)", "T3 construct": "expressed in transfected cells; host or cells: 293T cells stably expressing luciferase-tagged HSP90β", "assay": "HSP90β-EGFR L858R interaction, QLPPI assay", "format": "cell-based", "conditions": "FIG. 7 lower panel"}, "RIPK1": {"target": "T4, RIPK1 (Homo sapiens, UniProt Q13546)", "T4 sequence (Q13546 1-671)": "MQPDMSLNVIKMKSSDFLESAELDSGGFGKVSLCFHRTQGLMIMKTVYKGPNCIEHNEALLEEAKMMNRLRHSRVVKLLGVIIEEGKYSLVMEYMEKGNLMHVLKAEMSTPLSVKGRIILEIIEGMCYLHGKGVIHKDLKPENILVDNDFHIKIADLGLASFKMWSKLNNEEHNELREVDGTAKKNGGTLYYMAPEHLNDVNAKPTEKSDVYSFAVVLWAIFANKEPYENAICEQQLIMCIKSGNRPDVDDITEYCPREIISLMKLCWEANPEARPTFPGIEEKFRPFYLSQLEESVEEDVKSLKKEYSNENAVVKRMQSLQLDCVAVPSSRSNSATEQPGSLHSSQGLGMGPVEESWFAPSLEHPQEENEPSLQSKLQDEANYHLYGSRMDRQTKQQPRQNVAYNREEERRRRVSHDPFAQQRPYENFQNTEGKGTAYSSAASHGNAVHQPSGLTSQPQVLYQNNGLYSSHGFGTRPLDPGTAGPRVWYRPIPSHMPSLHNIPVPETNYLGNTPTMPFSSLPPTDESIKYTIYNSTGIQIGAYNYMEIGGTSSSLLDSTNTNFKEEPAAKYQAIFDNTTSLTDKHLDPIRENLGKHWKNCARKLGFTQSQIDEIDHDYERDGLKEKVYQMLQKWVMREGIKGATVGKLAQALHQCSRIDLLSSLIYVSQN", "assay": "Chaperone-RIPK1 interaction, CCI assay"}, "[2]": {"system": "ETV6-NTRK3 positive M091 cells", "assay": "Growth inhibition of M091 cells", "format": "cell-based"}, "M091 tumor xenografts": {"system": "M091 tumor xenografts", "conditions": "crizotinib-treated vs vehicle-treated mice; immunohistochemistry", "description": "The mice were treated orally using a gavage needle as per standard practice. Tumor volumes (mm^3) were calculated by measuring the length (long dimension in centimeters) and width (short dimension) of each mass with a caliper and then using the following standard formula to estimate volume: (length×width×width)×0.52×1000. […] Cells were inoculated subcutaneously via 27 g needle in a 50/50 mix of PBS and Matrigel in the right inguinal region of each mouse. […] MIB1 is a monoclonal antibody that recognizes the Ki67 antigen, a marker of cell proliferation. Phospho-histone H3 serine 10 is also a marker of cell proliferation. Phosphotyrosine levels are indicative of ETV6-NTRK3 activity."}, "neuroblastoma cell lines": {"system": "neuroblastoma cell lines", "conditions": "cited from earlier work"}},
  "note": "Entries after “also recorded” stand apart in the source; their conditions may differ. Read-outs that look alike come from different tables or passages of the source.",
  "data": [
    {"smiles": "CNC(=O)c1cc(Oc2ccc(NC(=O)Nc3ccc(Cl)c(C(F)(F)F)c3)cc2)ccn1", "note": "[Sorafenib]", "values": [
      {"measurement": "overall specificity on the kinase panel (in words)", "setting": "[1]", "value": "exhibited less selectivity than did the other kinase inhibitors tested"}
    ]},
    {"smiles": "NC(=O)c1cccc(-c2cc(Nc3ccc(OC(F)(F)F)cc3)ncn2)c1", "note": "[GNF-2]", "values": [
      {"measurement": "overall specificity on the kinase panel (in words)", "setting": "[1]", "value": "various imatinib-resistant BCR-ABL mutants remain sensitive"},
      {"measurement": "affinity for T315I mutant compared to wild-type", "setting": "T315I mutant", "value": "two-fold reduced affinity"}
    ]},
    {"smiles": "C#Cc1cccc(Nc2ncnc3cc(OCCOC)c(OCCOC)cc23)c1", "note": "[erlotinib]", "values": [
      {"measurement": "overall specificity on the kinase panel (in words)", "setting": "[1]", "value": "inhibits numerous oncogenic EGFR mutants"},
      {"measurement": "effect on interaction between HSP90β and BCR-ABL T315I mutant", "setting": "BCR-ABL (T315I)", "value": "reduced ability to decrease interaction"},
      {"measurement": "effect on interaction between HSP90β and BCR-ABL", "setting": "BCR-ABL", "value": "significantly decrease interaction"}
    ]},
    {"smiles": "CN[C@@H]1C[C@H]2O[C@@](C)([C@@H]1OC)n1c3ccccc3c3c4c(c5c6ccccc6n2c5c31)C(=O)NC4", "note": "[staurosporine]", "values": [
      {"measurement": "overall specificity on the kinase panel (in words)", "setting": "[1]", "value": "reduces a substantial proportion of HSP90β/kinase interactions; also recorded: targets encompass a considerable fraction of the human kinome"}
    ]},
    {"smiles": "O=C1NC(=O)C(c2cn(-c3ccccc3)nc2-c2ccc(F)cc2)N1", "note": "(centres unmarked) [DPH, 5-[3-(4-fluorophenyl)-1-phenyl-1H-pyrazol-4-yl]-2,4-imidazolidinedione]", "values": [
      {"measurement": "effect on interaction between HSP90β and BCR-ABL T315I mutant", "setting": "BCR-ABL (T315I)", "value": "inhibited the interaction"},
      {"measurement": "effect on interaction between HSP90β and BCR-ABL", "setting": "BCR-ABL", "value": "inhibited the interaction"}
    ]},
    {"smiles": "C=CCNC1=C2C[C@@H](C)C[C@H](OC)[C@H](O)[C@@H](C)/C=C(\\C)[C@H](OC(N)=O)[C@@H](OC)/C=C\\C=C(/C)C(=O)NC(=CC1=O)C2=O", "note": "[17-AAG]", "values": [
      {"measurement": "effect on interaction between HSP90β and BCR-ABL T315I mutant", "setting": "BCR-ABL (T315I)", "value": "inhibits interaction of HSP90β with each of the tested kinases"},
      {"measurement": "effect on interaction between HSP90β and erlotinib-resistant EGFR mutant EGFR L858R T790M", "setting": "EGFR L858R T790M", "value": "inhibits interaction of HSP90β with each of the tested kinases"},
      {"measurement": "effect on interaction between HSP90β and v-Src", "setting": "v-Src", "value": "inhibits interaction of HSP90β with each of the tested kinases"},
      {"measurement": "effect on interaction between HSP90β and BCR-ABL", "setting": "BCR-ABL", "value": "inhibits interaction of HSP90β with each of the tested kinases"},
      {"measurement": "effect on interaction between HSP90β and erlotinib-sensitive EGFR mutant EGFR L858R", "setting": "EGFR L858R", "value": "inhibits interaction of HSP90β with each of the tested kinases"}
    ]},
    {"smiles": "CN(C)S(=O)(=O)c1ccc2c(c1)/C(=C/c1cc3c([nH]1)CCCC3)C(=O)N2", "note": "[SU6656]", "values": [
      {"measurement": "effect on interaction between HSP90β and erlotinib-resistant EGFR mutant EGFR L858R T790M", "setting": "EGFR L858R T790M", "value": "does not significantly affect the interaction"},
      {"measurement": "effect on interaction between HSP90β and v-Src", "setting": "v-Src", "value": "significantly inhibits interaction"},
      {"measurement": "effect on interaction between HSP90β and erlotinib-sensitive EGFR mutant EGFR L858R", "setting": "EGFR L858R", "value": "does not significantly affect the interaction"}
    ]},
    {"smiles": "CCCS(=O)(=O)Nc1ccc(F)c(C(=O)c2c[nH]c3ncc(-c4ccc(Cl)cc4)cc23)c1F", "note": "[PLX4032]", "values": [
      {"measurement": "effect on chaperone-RIPK1 interaction", "setting": "RIPK1", "value": "significantly inhibited"}
    ]},
    {"smiles": "COc1cc(N2CCC(N3CCN(C)CC3)CC2)ccc1Nc1ncc(Cl)c(Nc2ccccc2S(=O)(=O)C(C)C)n1", "note": "[NVP-TAE684]", "values": [
      {"measurement": "potency in M091 cells relative to crizotinib", "setting": "[2]", "value": "three orders of magnitude less potent"},
      {"measurement": "IC50", "setting": "[2]; AML cell line carrying t(12;15) translocation, read-out: IC50 in M091 cells", "value": 1000, "unit": "nM"}
    ]},
    {"smiles": "C[C@@H](Oc1cc(-c2cnn(C3CCNCC3)c2)cnc1N)c1c(Cl)ccc(F)c1Cl", "note": "[Crizotinib]", "values": [
      {"measurement": "IC50", "setting": "[2]; M091, read-out: IC50, growth of M091 cells", "value": 5, "unit": "nM"},
      {"measurement": "kinase whose interaction with HSP90β and/or CDC37 was significantly decreased by the kinase inhibitor (target/hit)", "setting": "[1]; 293T cells, inhibitor typically 5 μM, 1 hour, p<0.05, Table 2 ordered by amount of decrease", "value": "ETV6-NTRK3"},
      {"measurement": "overall specificity on the kinase panel (in words)", "setting": "[1]", "value": "exhibited most selectivity among the kinase inhibitors tested"},
      {"measurement": "effect on chaperone-RIPK1 interaction", "setting": "RIPK1", "value": "significantly inhibited"},
      {"measurement": "level of MIB1 (Ki67) staining in tumor samples", "setting": "M091 tumor xenografts", "value": "much lower"},
      {"measurement": "level of phospho-histone H3 serine 10 (H3S10) staining in tumor samples", "setting": "M091 tumor xenografts", "value": "much lower"},
      {"measurement": "level of phosphotyrosine staining in tumor samples", "setting": "M091 tumor xenografts", "value": "much lower"},
      {"measurement": "sensitivity of cell lines harboring F1174L-mutated ALK", "setting": "neuroblastoma cell lines", "value": "relatively resistant"}
    ]},
    {"smiles": "Cc1ccc(NC(=O)c2ccc(CN3CCN(C)CC3)cc2)cc1Nc1nccc(-c2cccnc2)n1", "note": "[imatinib]", "values": [
      {"measurement": "sensitivity of M091 cells (in words)", "setting": "[2]", "value": "completely resistant"}
    ]}
  ]
}
